pIC50: −log10 of the molar value.
Biological target: enzyme 5α-reductase
Assay: enzymatic in vitro method described in WO/9413691 (5α-reductase inhibition)
Type: biochemical
Settings: for pIC50: concentration inhibiting by 50% the enzymatic activity, Finasteride as control product; for inhibiting activity on the enzyme 5α-reductase: verbal assessment, compared with Finasteride
Description: The three monohydroxylated products obtained by biotransformation of the azasteroid moiety using Penicillium sp. have biological activity on the enzyme 5α-reductase. For this purpose, the enzymatic in vitro method described in WO/9413691, published on June 23, 1994 has been used.

| pIC50 | inhibiting activity on the enzyme 5α-reductase | Compound |
| --- | --- | --- |
| 7.46 | strong inhibiting activity | CC(C)(C)NC(=O)[C@H]1C[C@@H](O)[C@H]2[C@@H]3CCC4NC(=O)CC[C@]4(C)[C@H]3CC[C@@]21C (stereo partly drawn) [Product 3, 17β-t-butylcarbamoyl-15β-hydroxy-4-azaandrostan-3-one] |
| 7.46 | strong inhibiting activity | CC(C)(C)NC(=O)[C@H]1C[C@H](O)[C@H]2[C@@H]3CCC4NC(=O)CC[C@]4(C)[C@H]3CC[C@@]21C (stereo partly drawn) [Product 2, 17β-t-butylcarbamoyl-15a-hydroxy-4-azaandrostan-3-one] |
| 6.71 | poorly active | CC(C)(C)NC(=O)[C@H]1CC[C@H]2[C@@H]3C[C@H](O)C4NC(=O)CC[C@]4(C)[C@H]3CC[C@]12C (stereo partly drawn) [Product 1, 17β-t-butylcarbamoyl-6a-hydroxy-4-azaandrostan-3-one] |
| 7.43 | – | CC(C)(C)NC(=O)[C@H]1CC[C@H]2[C@@H]3CC[C@H]4NC(=O)C=C[C@]4(C)[C@H]3CC[C@]12C [Finasteride, reference compound] |
